How the values were obtained:
[1] = tested on: primary rat cell-based BBB (blood-brain barrier) model; assay: Permeability of 14C-sucrose on primary rat cell-based BBB model after LPS challenge; conditions: LPS 10 ng/mL; compound at 0.1 μM and 1 μM; figure axis in 10^−6 cm·s^−1
Protocol: FIG. 2A: The permeability of radiolabelled sucrose, a permeability marker, was studied on a primary rat cell-based BBB (blood-brain barrier) model after lipopolysaccharide (LPS) challenge.
First graph (left): y-axis: permeability of ^14C-sucrose through the BBB (10^−6 cm·s^−1); x-axis (from left to right): BBB control (negative control); BBB+LPS (10 ng/mL) (positive control); BBB+Compound 13 (0.1 μM); BBB+LPS+Compound 13 (0.1 μM); BBB+Compound 13 (1 μM); BBB+LPS+Compound 13 (1 μM).
Second graph (right): y-axis: permeability of ^14C-sucrose through the BBB (10^−6 cm·s^−1); x-axis (from left to right): BBB control (negative control); BBB+LPS (10 ng/mL) (positive control); BBB+Aftin-5 (0.1 μM); BBB+LPS+Aftin-5 (0.1 μM); BBB+Aftin-5 (1 μM); BBB+LPS+Aftin-5 (1 μM).
The permeability of radiolabelled sucrose (^14C-sucrose), a permeability marker, was studied on a primary rat cell-based BBB (blood-brain barrier) model. Permeability was measured in 10^−6 cm·s^−1. ^14C-sucrose is a small molecular weight marker of 342 Da that tends to reflect paracellular disruption.
To induce increased BBB permeability, lipopolysaccharide (LPS) was injected. LPS induces increased BBB permeability by stimulating formation and release of cytokines and other molecules.
Two different Aftin compounds were tested in this example: […]. […]

[2] = as demonstrated in WO2018/189122; cited from earlier work
[3] = tested on: HI (Hypoxia-Ischemia) injury; assay: Rice-Vannucci neonatal HI model, infarct measurement; type: in vivo, Wistar rats; conditions: P7 rats, 30 mg/kg IP immediately after hypoxia, 24 h and 48 h; read 72 h after HI (P10); compared to HI+PL; males and females
Description: Subjects were Wistar rats born from time-mated dams obtain from Charles River Laboratory (Wilmington, […], USA).
Post-natal day 7 (P7) (CNS maturation corresponding to 32-34 weeks of gestation in human) rats were assigned to 3 groups: sham, HI+PL or HI+Compound 13.
In the sham group no hypoxia-ischemia was induced in the rats. This group served as a control group.
In the HI+PL group, where PL stands for placebo, hypoxia-ischemia was induced in the rats. The rats were then further administered a saline vehicle, which served as the placebo.
In the HI+Compound 13 group, hypoxia-ischemia was induced in the rats. The rats were then further administered a dose of Compound 13, which is a compound of formula (I) according to the invention.
The Rice-Vanucci method was used to induce the HI injury (Rice J E et al., 1981) in groups HI+PL and HI+Compound 13.
In summary, each animal from all three groups was anesthetized using 3-4% isoflurane and total absence of leg withdrawal reflexes was verified prior to proceeding to surgery. […]
The infarct was calculated as a percentage of the ratio of the damaged volume to the volume of the total contralateral hemisphere with correction for hemispheric edema, according to the following formula: infarct (%)=[1−(volume of total ipsilateral hemisphere−volume of infarct)/volume of total contralateral hemisphere)]×100%.

## CC[C@H](CO)Nc1nc(N(C)c2ccccc2)c2ncn(C(C)C)c2n1 [Aftin-5, (2R)-2-[[9-isopropyl-6-(N-methylanilino)purin-2-yl]amino]butan-1-ol]
[1]
  permeability of 14C-sucrose through the BBB under inflammatory stress: statistically restored the permeability properties of the BBB
[2]
  ability to cross the BBB: able to cross the BBB

## CC[C@H](CO)Nc1nc(N(CC)Cc2ccccc2)c2ncn(C(C)C)c2n1 [Compound 13, (2R)-2-[[6-[benzyl(ethyl)amino]-9-isopropyl-purin-2-yl]amino]butan-1-ol]
[3]
  infarct area / infarct volume of the hemisphere ipsilateral to HI injury: statistically reduced
[1]
  permeability of 14C-sucrose through the BBB under inflammatory stress: statistically restored the permeability properties of the BBB
